From patent US10285983B2, “3-(1H-pyrrolo[2,3-B]pyridin-2-yl)-1H-pyrazolo[3,4-B] pyridines and therapeutic uses thereof” (Samumed, LLC, priority 2015, dated 2019)

What was measured:
Type in all cases: cell-based
[1] = system: Wnt activity (Sp5-Luc reporter, SW480 colon carcinoma cells); experiment: Wnt activity screening assay, Sp5-Luc reporter gene in SW480 cells; settings: Homo sapiens; for inhibition at 10 µM: given for EC50 >10 μM, read-out: percent inhibition at 10 μM; for EC50: overnight incubation
Outline: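 SW480 colon carcinoma cells stably expressing firefly luciferase under a human Sp5 promoter (eight TCF/LEF sites), plated in 1% FBS medium. 10-point 1:3 dilutions from 10 μM, 0.1% DMSO final, overnight at 37 °C; luminescence normalized to DMSO, four-parameter fit for EC50, % inhibition at 10 μM if EC50 >10 μM.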

SW480 colon cancer cells = experiment: Cell viability assay (CellTiter-Blue); settings: Homo sapiens, 96 h, four days; for inhibition at 10 µM: given for EC50 >10 μM, read-out: percent inhibition at 10 μM
Outline: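 SW480 colon cancer cells (~2×10^3/well) exposed to 8-point 1:3 dilutions from 10 μM to 0.0045 μM for four days at 37 °C/5% CO2. Viability read by resazurin (CellTiter-Blue) fluorescence after ~3 h, Ex 560/Em 590 nm. EC50 from non-linear regression; percent inhibition at 10 μM given when EC50 >10 μM.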

[2] = system: primary human fibroblasts derived from IPF patients (LL29 cells); experiment: Inhibition of fibrotic process, αSMA staining in TGF-β1 treated LL29 fibroblasts; settings: Fibroblast, 96 h, TGF-β1 20 ng/mL, 4 days; for EC50: % αSMA positive cells; for inhibition at 10 µM: given for EC50 >10 μM, read-out: percent inhibition at 10 μM
Outline: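 IPF-patient LL29 lung fibroblasts in 1% FBS medium received compound (11-point, 1:2 dilution, 0.1% DMSO) plus TGF-β1 20 ng/mL, 4 days at 37 °C. Percent αSMA-positive cells among SYTOX-negative cells quantified by immunofluorescence imaging, normalized to TGF-β1/DMSO wells. EC50 by non-linear regression on triplicates; above 10 μM, % inhibition at 10 μM given.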

SMILES | EC50 [1] [µM] | EC50 (SW480 colon cancer cells) [µM] | inhibition at 10 µM [1] [%] | inhibition at 10 µM (SW480 colon cancer cells) [%] | EC50 [2] [µM] | inhibition at 10 µM [2] [%]
CN(C)Cc1cncc(-c2cnc3[nH]nc(-c4cc5c(N6CCCCC6)ccnc5[nH]4)c3c2)c1 [Compound 181, N,N-Dimethyl-1-(5-(3-(4-(piperidin-1-yl)-1H-pyrrolo[2,3-b]pyridin-2-yl)-1H-pyrazolo[3,4-b]pyridin-5-yl)pyridin-3-yl)methanamine] | > 10 | > 10 | 38.8 | 40.9 | 0.007 | –
c1cncc(-c2cnc3[nH]nc(-c4cc5cccnc5[nH]4)c3c2)c1 [Compound 256, 5-(Pyridin-3-yl)-3-(1H-pyrrolo[2,3-b]pyridin-2-yl)-1H-pyrazolo[3,4-b]pyridine] | 1.06 | > 10 | – | 5.8 | 0.529 | –
CC(C)(C)CC(=O)Nc1cncc(-c2cnc3[nH]nc(-c4cc5cccnc5[nH]4)c3c2)c1 [Compound 268, N-(5-(3-(1H-Pyrrolo[2,3-b]pyridin-2-yl)-1H-pyrazolo[3,4-b]pyridin-5-yl)pyridin-3-yl)-3,3-dimethylbutanamide] | 0.86 | 1.99 | – | – | 0.42 | –
c1cnc2[nH]c(-c3n[nH]c4ncc(-c5ccncc5)cc34)cc2c1 [Compound 270, 5-(Pyridin-4-yl)-3-(1H-pyrrolo[2,3-b]pyridin-2-yl)-1H-pyrazolo[3,4-b]pyridine] | > 10 | > 10 | 0 | 23.9 | > 10 | 55.6
O=C(Nc1cncc(-c2cnc3[nH]nc(-c4cc5cccnc5[nH]4)c3c2)c1)C1CCCCC1 [Compound 275, N-(5-(3-(1H-Pyrrolo[2,3-b]pyridin-2-yl)-1H-pyrazolo[3,4-b]pyridin-5-yl)pyridin-3-yl)cyclohexanecarboxamide] | 1.26 | 2.43 | – | – | 1.56 | –
CC(C)(C)CC(=O)Nc1cncc(-c2cnc3[nH]nc(-c4cc5c(-c6ccoc6)ccnc5[nH]4)c3c2)c1 [Compound 324, N-(5-(3-(4-(Furan-3-yl)-1H-pyrrolo[2,3-b]pyridin-2-yl)-1H-pyrazolo[3,4-b]pyridin-5-yl)pyridin-3-yl)-3,3-dimethylbutanamide] | > 10 | > 10 | 4.2 | 5.3 | > 10 | 0
CN(C)c1cncc(-c2cnc3[nH]nc(-c4cc5c(-c6cccs6)ccnc5[nH]4)c3c2)c1 [Compound 343, N,N-Dimethyl-5-(3-(4-(thiophen-2-yl)-1H-pyrrolo[2,3-b]pyridin-2-yl)-1H-pyrazolo[3,4-b]pyridin-5-yl)pyridin-3-amine] | > 10 | > 10 | 18.3 | 36.8 | 1.75 | –
O=C(Nc1cncc(-c2cnc3[nH]nc(-c4cc5c(-c6cccs6)ccnc5[nH]4)c3c2)c1)C1CC1 [Compound 356, N-(5-(3-(4-(Thiophen-2-yl)-1H-pyrrolo[2,3-b]pyridin-2-yl)-1H-pyrazolo[3,4-b]pyridin-5-yl)pyridin-3-yl)cyclopropanecarboxamide] | 6.37 | > 10 | – | 14.5 | > 10 | 0
CN(C)CCNc1cc(F)cc(-c2ccnc3[nH]c(-c4n[nH]c5ncc(-c6cncc(NC(=O)C7CCC7)c6)cc45)cc23)c1 [Compound 469, N-(5-(3-(4-(3-((2-(Dimethylamino)ethyl)amino)-5-fluorophenyl)-1H-pyrrolo [2,3-b]pyridin-2-yl)-1H-pyrazolo[3,4-b]pyridin-5-yl)pyridin-3-yl)cyclobutanecarboxamide] | > 10 | > 10 | 47.5 | 0 | > 10 | 0
CN(C)CCOc1cncc(-c2cnc3[nH]nc(-c4cc5c(-c6cccnc6)ccnc5[nH]4)c3c2)c1 [Compound 563, N,N-dimethyl-2-((5-(3-(4-(pyridin-3-yl)-1H-pyrrolo[2,3-b]pyridin-2-yl)-1H-pyrazolo[3,4-b]pyridin-5-yl)pyridin-3-yl)oxy)ethan-1-amine] | > 10 | > 10 | 20.6 | 5.3 | 2.44 | –

Further lines, with some results ahead:

EC50 [1] [µM] | EC50 (SW480 colon cancer cells) [µM] | SMILES | inhibition at 10 µM [1] [%] | inhibition at 10 µM (SW480 colon cancer cells) [%] | EC50 [2] [µM] | inhibition at 10 µM [2] [%]
> 10 | > 10 | c1cc(N2CCCCC2)c2cc(-c3n[nH]c4ncc(-c5cncc(CN6CCCC6)c5)cc34)[nH]c2n1 [Compound 182, 3-(4-(Piperidin-1-yl)-1H-pyrrolo[2,3-b]pyridin-2-yl)-5-(5-(pyrrolidin-1-ylmethyl)pyridin-3-yl)-1H-pyrazolo[3,4-b]pyridine] | 7.1 | 26 | > 10 | 21.9
> 10 | > 10 | CCCC(=O)Nc1cncc(-c2cnc3[nH]nc(-c4cc5c(N6CCCCC6)ccnc5[nH]4)c3c2)c1 [Compound 185, N-(5-(3-(4-(Piperidin-1-yl)-1H-pyrrolo[2,3-b]pyridin-2-yl)-1H-pyrazolo[3,4-b]pyridin-5-yl)pyridin-3-yl)butyramide] | 10.9 | 4.9 | > 10 | 0
> 10 | > 10 | c1ncc(-c2cnc3[nH]nc(-c4cc5c(N6CCCCC6)ccnc5[nH]4)c3c2)cn1 [Compound 195, 3-(4-(Piperidin-1-yl)-1H-pyrrolo[2,3-b]pyridin-2-yl)-5-(pyrimidin-5-yl)-1H-pyrazolo[3,4-b]pyridine] | 6.9 | 13.9 | 4.38 | –
> 10 | > 10 | CN1CCN(c2ccnc3[nH]c(-c4n[nH]c5ncc(-c6cncc(NC(=O)C7CCCCC7)c6)cc45)cc23)CC1 [Compound 247, N-(5-(3-(4-(4-Methylpiperazin-1-yl)-1H-pyrrolo[2,3-b]pyridin-2-yl)-1H-pyrazolo[3,4-b]pyridin-5-yl)pyridin-3-yl)cyclohexanecarboxamide] | 6.4 | 11.7 | 5.03 | –
> 10 | > 10 | O=C(Nc1cncc(-c2cnc3[nH]nc(-c4cc5cccnc5[nH]4)c3c2)c1)c1ccccc1 [Compound 263, N-(5-(3-(1H-Pyrrolo[2,3-b]pyridin-2-yl)-1H-pyrazolo[3,4-b]pyridin-5-yl)pyridin-3-yl)benzamide] | 29.7 | 21.1 | 0.363 | –
> 10 | > 10 | CCCCC(=O)Nc1cncc(-c2cnc3[nH]nc(-c4cc5cccnc5[nH]4)c3c2)c1 [Compound 271, N-(5-(3-(1H-Pyrrolo[2,3-b]pyridin-2-yl)-1H-pyrazolo[3,4-b]pyridin-5-yl)pyridin-3-yl)pentanamide] | 6.5 | 11.4 | 5.35 | –
> 10 | > 10 | O=C(Nc1cncc(-c2cnc3[nH]nc(-c4cc5cccnc5[nH]4)c3c2)c1)C1CCCC1 [Compound 274, N-(5-(3-(1H-Pyrrolo[2,3-b]pyridin-2-yl)-1H-pyrazolo[3,4-b]pyridin-5-yl)pyridin-3-yl)cyclopentanecarboxamide] | 40.3 | 54.2 | 0.76 | –
> 10 | > 10 | CN(C)CCNc1cc(F)cc(-c2ccnc3[nH]c(-c4n[nH]c5ncc(-c6cncc(NC(=O)C(C)(C)C)c6)cc45)cc23)c1 [Compound 456, N-(5-(3-(4-(3-((2-(Dimethylamino)ethyl)amino)-5-fluorophenyl)-1H-pyrrolo [2,3-b]pyridin-2-yl)-1H-pyrazolo[3,4-b]pyridin-5-yl)pyridin-3-yl)pivalamide] | 42.4 | 0 | > 10 | 0
> 10 | > 10 | Fc1cccc(-c2ccnc3[nH]c(-c4n[nH]c5ncc(-c6cncc(OCc7ccccc7)c6)cc45)cc23)c1 [Compound 518, 5-(5-(Benzyloxy)pyridin-3-yl)-3-(4-(3-fluorophenyl)-1H-pyrrolo[2,3-b]pyridin-2-yl)-1H-pyrazolo[3,4-b]pyridine] | 0 | 16.3 | > 10 | 0
> 10 | > 10 | Oc1cncc(-c2cnc3[nH]nc(-c4cc5c(-c6ccc(F)cc6)ccnc5[nH]4)c3c2)c1 [Compound 533, 5-(3-(4-(4-Fluorophenyl)-1H-pyrrolo[2,3-b]pyridin-2-yl)-1H-pyrazolo[3,4-b]pyridin-5-yl)pyridin-3-ol] | 3.4 | 19 | 6.76 | –
> 10 | > 10 | O=C(CC1CCNCC1)Nc1cncc(-c2cnc3[nH]nc(-c4cc5c(-c6ccncc6)ccnc5[nH]4)c3c2)c1 [Compound 577] | 12.5 | 8.7 | 1.41 | –
